This passage reports T/C results from PubChem BioAssay AID330 (DTP/NCI, 2004).

Several values for one entry are separate records, joined by “and”; a condition that tells them apart may be missing. Equal values may be shown once. Inconclusive results and toxic doses are left out.

The test deals with P388 leukemia ip, CD2F1 mice, survival T/C. As to the kind of experiment: NCI In Vivo Anticancer Drug Screen. Data for tumor model P388 Leukemia (intraperitoneal) in CD2F1 (CDF1) mice. The note with it: endpoint: median survival time, higher = longer survival. The procedure, abridged:
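Mice carrying the transplanted tumor received test compound or vehicle. Survival was recorded in each group, and the value is the treated-group measurement divided by that of the vehicle-treated control group.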

Setting [1] is: dose: 50.0 mg/kg/injection, schedule: Q01DX005 (ip), vehicle: Klucel (hydroxypropylcellulose) (HPC).
Setting [2] is: dose: 100.0 mg/kg/injection, schedule: Q01DX005 (ip), vehicle: Klucel (hydroxypropylcellulose) (HPC).
Setting [3] is: dose: 200.0 mg/kg/injection, schedule: Q01DX005 (ip), vehicle: Klucel (hydroxypropylcellulose) (HPC).
[4] abbreviates: dose: 12.5 mg/kg/injection, schedule: Q01DX005 (ip), vehicle: Klucel (hydroxypropylcellulose) (HPC).
Where [5] appears, read: dose: 25.0 mg/kg/injection, schedule: Q01DX005 (ip), vehicle: Klucel (hydroxypropylcellulose) (HPC).
Where [6] appears, read: dose: 50.0 mg/kg/injection, schedule: Q01DX009 (ip), vehicle: saline.
Where [7] appears, read: dose: 100.0 mg/kg/injection, schedule: Q01DX009 (ip), vehicle: saline.
Where [8] appears, read: dose: 200.0 mg/kg/injection, schedule: Q01DX009 (ip), vehicle: saline.
The mark [9] stands for this setting: dose: 50.0 mg/kg/injection, schedule: Q01DX009 (ip), vehicle: Klucel (hydroxypropylcellulose) (HPC).
Setting [10] is: dose: 100.0 mg/kg/injection, schedule: Q01DX009 (ip), vehicle: Klucel (hydroxypropylcellulose) (HPC).
Where [11] appears, read: dose: 200.0 mg/kg/injection, schedule: Q01DX009 (ip), vehicle: Klucel (hydroxypropylcellulose) (HPC).
Where [12] appears, read: dose: 50.0 mg/kg/injection, schedule: Q01DX009 (ip), vehicle: saline with Tween-80.
Where [13] appears, read: dose: 50.0 mg/kg/injection, schedule: Q01DX005 (ip), vehicle: saline with Tween-80.
[14] abbreviates: dose: 100.0 mg/kg/injection, schedule: Q01DX005 (ip), vehicle: saline with Tween-80.
[15] abbreviates: dose: 200.0 mg/kg/injection, schedule: Q01DX005 (ip), vehicle: saline with Tween-80.
[16] abbreviates: dose: 12.5 mg/kg/injection, schedule: Q01DX009 (ip), vehicle: saline with Tween-80.
The mark [17] stands for this setting: dose: 25.0 mg/kg/injection, schedule: Q01DX009 (ip), vehicle: saline with Tween-80.

`O=C(O)c1ccc(NC(=O)C(Cl)Cl)cc1`: the T/C is, setting by setting: under setting [1], 97 % of control; under setting [2], 102 % of control; under setting [3], 100 % of control.
For `Nc1ncc(NCCCNc2ccc(C(=O)NC(CCC(=O)O)C(=O)O)cc2)c(=O)[nH]1` (stereo not given), the T/C is, setting by setting: (dose: 6.25 mg/kg/injection, schedule: Q01DX005 (ip), vehicle: Klucel (hydroxypropylcellulose) (HPC)) 100 % of control and 102 % of control; under setting [4], 100 % of control and 102 % of control; under setting [5], 99 % of control and 104 % of control; under setting [1], 102 % of control and 98 % of control; under setting [2], 99 % of control and 103 % of control; under setting [3], 100 % of control and 102 % of control.
Consider `Cn1c2ccccc2c2ccc3c(c21)C(=O)C=CC3=O`, for which the T/C (dose: 25.0 mg/kg/injection, schedule: Q01DX009 (ip), vehicle: distilled water + Tween-80) is 120 % of control.
As for `CC(=O)Nn1c(N)nc2ccccc21`, the T/C (dose: 100.0 mg/kg/injection, schedule: Q04DX003 (ip), vehicle: saline) is 100 % of control; the T/C (dose: 200.0 mg/kg/injection, schedule: Q04DX003 (ip), vehicle: saline) was 109 % of control; the T/C (dose: 400.0 mg/kg/injection, schedule: Q04DX003 (ip), vehicle: saline) is 96 % of control.
In the case of `CN(N=O)C(=O)NCC1OC(OC2(CO)OC(CNC(=O)N(C)N=O)C(O)C2O)C(O)C(O)C1O` (stereo not given), the T/C reads like this: under setting [6], 103 % of control and 109 % of control and 120 % of control; under setting [7], 112 % of control and 120 % of control; under setting [8], 104 % of control.
For the compound `CNc1ccccc1CO`, the T/C (dose: 100.0 mg/kg/injection, schedule: Q04DX003 (ip), vehicle: other) is 95 % of control; the T/C (dose: 200.0 mg/kg/injection, schedule: Q04DX003 (ip), vehicle: other) is 95 % of control; the T/C (dose: 400.0 mg/kg/injection, schedule: Q04DX003 (ip), vehicle: other) is 90 % of control.
For `CC(=O)OCC1OC(n2cc(F)c(=O)[nH]c2=O)C(OC(C)=O)C1OC(C)=O` (stereo not given), the T/C is, setting by setting: (dose: 1.56 mg/kg/injection, schedule: Q01DX009 (ip), vehicle: Klucel (hydroxypropylcellulose) (HPC)) 110 % of control; (dose: 6.25 mg/kg/injection, schedule: Q01DX009 (ip), vehicle: Klucel (hydroxypropylcellulose) (HPC)) 151 % of control; (dose: 12.5 mg/kg/injection, schedule: Q01DX009 (ip), vehicle: Klucel (hydroxypropylcellulose) (HPC)) 108 % of control; (dose: 25.0 mg/kg/injection, schedule: Q01DX009 (ip), vehicle: Klucel (hydroxypropylcellulose) (HPC)) 89 % of control; under setting [9], 89 % of control; under setting [10], 88 % of control.
In the case of `Cc1cc2c(=O)cc(-c3ccccc3)oc2c(C(N)=O)c1C`, the T/C by setting is: (dose: 60.0 mg/kg/injection, schedule: Q01DX005 (ip), vehicle: saline with Tween-80) 99 % of control; (dose: 120.0 mg/kg/injection, schedule: Q01DX005 (ip), vehicle: saline with Tween-80) 98 % of control; (dose: 240.0 mg/kg/injection, schedule: Q01DX005 (ip), vehicle: saline with Tween-80) 93 % of control.
In the case of `C=CCCCCC1CC2CCCCN2O1` (stereo not given), the T/C runs as follows: under setting [9], 94 % of control; under setting [10], 103 % of control; under setting [11], 113 % of control.
In the case of `CC(C)Cc1cc(-c2cc(CC(C)C)nc(N)n2)nc(N)n1`, the T/C (dose: 60.0 mg/kg/injection, schedule: Q01DX005 (ip), vehicle: saline) is 100 % of control and the T/C (dose: 120.0 mg/kg/injection, schedule: Q01DX005 (ip), vehicle: saline) is 90 % of control.
`Cc1cc2nc(CC(=O)c3cccc([N+](=O)[O-])c3)c(=O)[nH]c2cc1C`: the T/C is 95 % of control (dose: 7.5 mg/kg/injection, schedule: Q01DX005 (ip), vehicle: saline with Tween-80); 96 % of control (dose: 15.0 mg/kg/injection, schedule: Q01DX005 (ip), vehicle: saline with Tween-80); 91 % of control (dose: 30.0 mg/kg/injection, schedule: Q01DX005 (ip), vehicle: saline with Tween-80).
On to `CC1(C)CC(=O)C(CSc2ccccc2)C(=O)C1`, for which the T/C (dose: 12.5 mg/kg/injection, schedule: Q01DX001 (ip), vehicle: saline) was 108 % of control; the T/C (dose: 25.0 mg/kg/injection, schedule: Q01DX001 (ip), vehicle: Klucel (hydroxypropylcellulose) (HPC)) was 100 % of control; the T/C (dose: 25.0 mg/kg/injection, schedule: Q01DX001 (ip), vehicle: saline) was 111 % of control; the T/C (dose: 50.0 mg/kg/injection, schedule: Q01DX001 (ip), vehicle: Klucel (hydroxypropylcellulose) (HPC)) is 100 % of control and 105 % of control; the T/C (dose: 50.0 mg/kg/injection, schedule: Q01DX001 (ip), vehicle: saline) was 112 % of control; the T/C (dose: 100.0 mg/kg/injection, schedule: Q01DX001 (ip), vehicle: Klucel (hydroxypropylcellulose) (HPC)) is 100 % of control.
On to `CC(C)(C)c1cc(C(C)(C)C)c(=O)oc(=O)c1`, for which the T/C under setting [1] was 98 % of control and the T/C under setting [2] is 98 % of control.
On to `CNC(=S)N/N=C(\c1ccccc1)c1ccccn1`, for which the T/C is, setting by setting: under setting [6], 100 % of control; (dose: 50.0 mg/kg/injection, schedule: Q01DX009 (ip), vehicle: suspension in saline) 100 % of control and 105 % of control; under setting [7], 102 % of control; (dose: 100.0 mg/kg/injection, schedule: Q01DX009 (ip), vehicle: suspension in saline) 103 % of control and 90 % of control; under setting [8], 100 % of control; (dose: 200.0 mg/kg/injection, schedule: Q01DX009 (ip), vehicle: suspension in saline) 96 % of control and 98 % of control. The T/C (dose: 400.0 mg/kg/injection, schedule: Q01DX009 (ip), vehicle: saline) is 122 % of control; the T/C (dose: 400.0 mg/kg/injection, schedule: Q01DX009 (ip), vehicle: suspension in saline) is 102 % of control and 97 % of control.
Consider `CCSC(C#N)C(C)=O` (stereo not given), for which the T/C (dose: 12.5 mg/kg/injection, schedule: Q01DX009 (ip), vehicle: saline) was 106 % of control; the T/C (dose: 25.0 mg/kg/injection, schedule: Q01DX009 (ip), vehicle: saline) is 97 % of control; the T/C under setting [12] is 100 % of control; the T/C under setting [6] was 100 % of control.
For the compound `CCSC(=NC)Nc1ccc(Oc2ccc(Cl)cc2)cc1`, the T/C runs as follows: under setting [4], 101 % of control and 102 % of control; under setting [5], 105 % of control and 106 % of control; under setting [1], 102 % of control and 109 % of control and 123 % of control; under setting [2], 100 % of control and 106 % of control and 107 % of control.
Take `CCOC(=O)C1CSC(c2c(COP(=O)(O)O)cnc(C)c2O)N1` (stereo not given): the T/C reads like this: under setting [13], 96 % of control; under setting [14], 100 % of control; under setting [15], 94 % of control.
For the compound `N#CC1(C#N)C(CCl)C1(C#N)C#N`, the T/C was 98 % of control under setting [16], 94 % of control under setting [17], 98 % of control under setting [12] and 102 % of control under setting [6].
Take `COC1CCC2C(C1)C(C1CCCCC1)C1CCCCC1C2C1CCCCC1` (stereo not given): the T/C is 96 % of control under setting [13], 93 % of control under setting [14] and 95 % of control under setting [15].
With `O=C1c2ccccc2C(=O)N1CC(O)COCc1ccccc1` (stereo not given), the T/C by setting is: under setting [13], 102 % of control; under setting [14], 98 % of control; under setting [15], 100 % of control.
For `Cc1cc(N=Nc2ccncc2C)ccc1N`, the T/C by setting is: (dose: 6.25 mg/kg/injection, schedule: Q01DX009 (ip), vehicle: saline with Tween-80) 106 % of control; under setting [16], 104 % of control; under setting [17], 100 % of control; under setting [12], 92 % of control.
With `CCCCCCCCCN1CCS(=O)(=O)CC1`, the T/C reads like this: under setting [9], 94 % of control; under setting [10], 98 % of control; under setting [11], 103 % of control.
